In patent US20250214977A1, “STAT6 INHIBITORS AND USES THEREOF” (Kymera Therapeutics, Inc., priority 2024, published 2025):

What follows are compounds tested on Phosphorylation of STAT6 in human A549 cells (assay: Phosphorylated STAT6 (pSTAT6) flow cytometry assay in human A549 cells). Conditions: listed as I-390, read-out: STAT6 IL4 pSTAT6 assay in A549 cells: Average IC50.
Format: cell-based
Description: Example 3. Phosphorylated STAT6 (pSTAT6) Flow Cytometry Assay in Human A549 Cells
Phosphorylation of STAT6 in human A549 cells was quantitatively measured using flow cytometry technology.
`COc1cc(F)cnc1N1CCN(C(=O)c2cc3c([C@@H]4CCCN4C)cc(C4=CCCN(C(=O)CCn5ccnn5)C4)c(F)c3[nH]2)CC1` (single isomer, unassigned) [Example I-813] gave an IC50 of under 0.1 µM.

Same assay, conditions: listed as I-391, read-out: STAT6 IL4 pSTAT6 assay in A549 cells: Average IC50
`COc1cc(F)cnc1N1CCN(C(=O)c2cc3c([C@H]4CCCN4C)cc(C4=CCCN(C(=O)CCn5ccnn5)C4)c(F)c3[nH]2)CC1` (single isomer, unassigned) [Example I-814] was tested, and the IC50 was under 0.1 µM.

Same assay, conditions: read-out: STAT6 IL4 pSTAT6 assay in A549 cells: Average IC50
For “2-(3-(1-(cyclopropylmethyl)-7-(2-ethyl-6-methylpyridin-3-yl)-5-(4-(5-fluoro-3-methoxypyridin-2-yl)piperazine-1-carbonyl)-1H-indol-2-yl)-5,6-dihydropyridin-1(2H)-yl)-2-oxoacetic acid [Example I-1228]”, the IC50 was under 0.1 µM.
In the case of “5-(1-(2-formyl-1,2,3,4-tetrahydroisoquinoline-3-carbonyl)-1,2,5,6-tetrahydropyridin-3-yl)-7-(2-methoxyphenyl)-N,N-dimethylbenzofuran-2-carboxamide [Example I-803]”, the IC50 is reported as over 100 µM.
`CCC1CN(C(=O)c2cc3c(-c4ccccc4OC)cc(C4=CCCN(C(=O)CCn5ccnn5)C4)c(F)c3[nH]2)CC=C1c1ccccn1` (racemic) [Example I-1042] was tested, and the IC50 was 10 to 100 µM.
`COc1ccc(C)cc1-c1cc(C2=CCCN(C(=O)C3Cc4ccccc4CN3C=O)C2)cc2cc(C(=O)N(C)C)oc12` (racemic) [Example I-1196] showed an IC50 of under 0.1 µM.
`CN(C)C(=O)c1cc2c(F)c(C3=CCCN(C(=O)[C@@H]4Cc5ccccc5CN4C=O)C3)ccc2o1` (single isomer, unassigned) [Example I-375] showed an IC50 of 0.1 to 1 µM.
For `CN(C)C(=O)c1cc2c(F)c(C3=CCCN(C(=O)[C@H]4Cc5ccccc5CN4C=O)C3)ccc2o1` (single isomer, unassigned) [Example I-376], the IC50 was over 100 µM.
`COc1ccccc1-c1cc(C2=CCCN(C(=O)[C@H]3Cc4ccccc4CN3C=O)C2)cc2cc(C(=O)N(C)C)oc12` (single isomer, unassigned) [Example I-804] showed an IC50 of 0.1 to 1 µM.
With `COc1ccccc1-c1cc(C2=CCCN(C(=O)[C@@H]3Cc4ccccc4CN3C=O)C2)cc2cc(C(=O)N(C)C)oc12` (single isomer, unassigned) [Example I-805] the IC50 was 10 to 100 µM.
Compound `CCc1ccncc1-c1cc(C2=CCC[C@H](C(=O)O)C2)c(F)c2[nH]c(C(=O)N3CCN(c4ncc(F)cc4OC)CC3)cc12` (single isomer, unassigned) [Example I-809] has an IC50 of over 100 µM.
`CCc1ccncc1-c1cc(C2=CCC[C@@H](C(=O)O)C2)c(F)c2[nH]c(C(=O)N3CCN(c4ncc(F)cc4OC)CC3)cc12` (single isomer, unassigned) [Example I-810] was tested, and the IC50 was over 100 µM.
`COc1cc(F)cnc1N1CCN(C(=O)c2cc3c([C@@H]4CCCN4C)cc(C4=CCCN(C(=O)CCn5ccnn5)C4)c(F)c3[nH]2)CC1` (single isomer, unassigned) [Example I-813] gave an IC50 of over 100 µM.
`COc1cc(F)cnc1N1CCN(C(=O)c2cc3c([C@H]4CCCN4C)cc(C4=CCCN(C(=O)CCn5ccnn5)C4)c(F)c3[nH]2)CC1` (single isomer, unassigned) [Example I-814] was tested, and the IC50 was over 100 µM.
Work on `C[C@H](Cn1ccnn1)C(=O)N1CCC=C(c2ccc3oc(C(=O)N(C)C)cc3c2)C1` (single isomer, unassigned) [Example I-818] yielded an IC50 of 0.1 to 1 µM.
`CCC1CCCCC1c1cc(C2=CCCN(C(=O)CCn3ccnn3)C2)c(F)c2[nH]c(C(=O)N3CCN(c4ncc(F)cc4OC)CC3)cc12` (single isomer, unassigned) [Example I-1174] was tested, and the IC50 was 1 to 10 µM.
In the case of `CCC1CCCCC1c1cc(C2=CCCN(C(=O)CCn3ccnn3)C2)c(F)c2[nH]c(C(=O)N3CCN(c4ncc(F)cc4OC)CC3)cc12` (single isomer, unassigned) [Example I-1175], the IC50 is reported as 0.1 to 1 µM.
`CN(C)C(=O)c1cc2ccc([C@H]3CCCN(C(=O)CCn4ccnn4)C3)c(F)c2[nH]1` (single isomer, unassigned) [Example I-1187] showed an IC50 of under 0.1 µM.
For `CNc1ccc(-c2cc([C@@H]3CCCN(C(=O)CCn4ccnn4)C3)cc3[nH]c(C(=O)N(C)C)cc23)c(OC)c1` (single isomer, unassigned) [Example I-1191], the IC50 was 1 to 10 µM.
In the case of `CNc1ccc(-c2cc([C@H]3CCCN(C(=O)CCn4ccnn4)C3)cc3[nH]c(C(=O)N(C)C)cc23)c(OC)c1` (single isomer, unassigned) [Example I-1194], the IC50 is reported as under 0.1 µM.
`COc1ccccc1-c1cc(C2=CCCN(C(=O)CCn3ccnn3)C2)c(F)c2[nH]c(C(=O)N3CCN(c4ncccc4Cl)CC3)cc12` [Example I-324] gave an IC50 of under 0.1 µM.
For `COc1ccccc1-c1cc(C2=CCCN(C(=O)CCn3ccnn3)C2)c(F)c2[nH]c(C(=O)N3CCN(C4CC4)CC3)cc12` [Example I-325], the IC50 was under 0.1 µM.
Compound `COc1ccccc1-c1cc(C2=CCCN(C(=O)CCn3ccnn3)C2)c(F)c2[nH]c(C(=O)N3CCN(c4ncccc4OC)CC3)cc12` [Example I-326] has an IC50 of 10 to 100 µM.
With `CCc1cccnc1N1CCN(C(=O)c2cc3c(-c4ccccc4OC)cc(C4=CCCN(C(=O)CCn5ccnn5)C4)c(F)c3[nH]2)CC1` [Example I-327] the IC50 was under 0.1 µM.
In the case of `COc1ccccc1-c1cc(C2=CCCN(C(=O)CCn3ccnn3)C2)c(F)c2[nH]c(C(=O)N3CCN(c4ncccc4C#N)CC3)cc12` [Example I-328], the IC50 is reported as under 0.1 µM.
With `COc1ccccc1-c1cc(C2=CCCN(C(=O)CCn3ccnn3)C2)c(F)c2[nH]c(C(=O)N3CCN(c4ncccc4C(F)(F)F)CC3)cc12` [Example I-329] the IC50 was under 0.1 µM.
Compound `COCCOc1cccnc1N1CCN(C(=O)c2cc3c(-c4ccccc4OC)cc(C4=CCCN(C(=O)CCn5ccnn5)C4)c(F)c3[nH]2)CC1` [Example I-330] has an IC50 of under 0.1 µM.
Work on `COc1ccccc1-c1cc(C2=CCCN(C(=O)CCn3ccnn3)C2)c(F)c2[nH]c(C(=O)N3CCN(c4ncccc4OC(F)(F)F)CC3)cc12` [Example I-331, 1-(5-(7-fluoro-4-(2-methoxyphenyl)-2-(4-(3-(trifluoromethoxy)pyridin-2-yl)piperazine-1-carbonyl)-1H-indol-6-yl)-3,6-dihydropyridin-1(2H)-yl)-3-(1H-1,2,3-triazol-1-yl)propan-1-one] yielded an IC50 of under 0.1 µM.
With `COc1ccccc1-c1cc(C2=CCCN(C(=O)CCn3ccnn3)C2)c(F)c2[nH]c(C(=O)N3CCN(c4ncccc4OC(C)C)CC3)cc12` [Example I-332] the IC50 was under 0.1 µM.
`COc1ccccc1-c1cc(C2=CCCN(C(=O)CCn3ccnn3)C2)c(F)c2[nH]c(C(=O)N3CCN(c4ncccc4C(C)C)CC3)cc12` [Example I-333] was tested, and the IC50 was under 0.1 µM.
Compound `COc1ccccc1-c1cc(C2=CCCN(C(=O)CCn3ccnn3)C2)c(F)c2[nH]c(C(=O)N3CCN(c4ncccc4Oc4ccccc4)CC3)cc12` [Example I-334] has an IC50 of under 0.1 µM.
Work on `CCOc1cccnc1N1CCN(C(=O)c2cc3c(-c4ccccc4OC)cc(C4=CCCN(C(=O)CCn5ccnn5)C4)c(F)c3[nH]2)CC1` [Example I-335] yielded an IC50 of under 0.1 µM.
`COc1ccccc1-c1cc(C2=CCCN(C(=O)CCn3ccnn3)C2)c(F)c2[nH]c(C(=O)N3CCN(c4ncccc4OC4CC4)CC3)cc12` [Example I-336] gave an IC50 of under 0.1 µM.
`COc1ccccc1-c1cc(C2=CCCN(C(=O)CCn3ccnn3)C2)c(F)c2sc(C(=O)N(C)C)cc12` [Example I-337, 6-(1-(3-(1H-1,2,3-triazol-1-yl)propanoyl)-1,2,5,6-tetrahydropyridin-3-yl)-7-fluoro-4-(2-methoxyphenyl)-N,N-dimethylbenzo[b]thiophene-2-carboxamide] gave an IC50 of under 0.1 µM.
In the case of `COc1cccnc1N1CCN(C(=O)c2cc3ccc(C4=CCCN(C(=O)CCn5ccnn5)C4)c(F)c3[nH]2)CC1` [Example I-338], the IC50 is reported as under 0.1 µM.
`COc1ccccc1-c1cc(C2=CCCN(C(=O)CCn3ccnn3)C2)c(F)c2[nH]c(C(=O)N3CCN(c4nc5ccccc5nc4C)CC3)cc12` [Example I-339] showed an IC50 of under 0.1 µM.
`COc1ccccc1-c1cc(C2=CCCN(C(=O)CCn3ccnn3)C2)c(F)c2[nH]c(C(=O)N3CCN(c4cc(F)c5nc(C)n(C(C)C)c5c4)CC3)cc12` [Example I-340] was tested, and the IC50 was under 0.1 µM.
With `COc1ccccc1-c1cc(C2=CCCN(C(=O)CCn3ccnn3)C2)c(F)c2[nH]c(C(=O)N3CCN(c4cc5ccccc5cc4OC)CC3)cc12` [Example I-342] the IC50 was under 0.1 µM.
With `O=C(CCn1ccnn1)N1CCC=C(c2cc(-c3ccccc3F)c3cc(C(=O)N4CCN(c5ncccc5OC5CC5)CC4)[nH]c3c2F)C1` [Example I-343] the IC50 was under 0.1 µM.
`COc1ccccc1-c1cc(C2=CCCN(C(=O)CCn3cccn3)C2)c(F)c2[nH]c(C(=O)N3CCN(c4ncccc4OC4CC4)CC3)cc12` [Example I-345] was tested, and the IC50 was under 0.1 µM.
With `COc1ccccc1-c1cc(C2=CCCN(C(=O)CCn3ccnn3)C2)c(F)c2sc(C(=O)N3CCN(c4ncccc4OC)CC3)cc12` [Example I-346] the IC50 was under 0.1 µM.
Work on `COc1ccccc1-c1cc(C2=CCCN(C(=O)CCn3ccnn3)C2)c(F)c2[nH]c(C(=O)N3CCN(c4cccnc4OC)CC3)cc12` [Example I-347] yielded an IC50 of under 0.1 µM.
Work on `COc1ccccc1-c1cc(C2CCCN(C(=O)CCn3ccnn3)C2)c(F)c2[nH]c(C(=O)N3CCN(c4ncccc4OC)CC3)cc12` (stereo not shown) [Example I-348] yielded an IC50 of under 0.1 µM.
In the case of `COc1ccccc1-c1cc(C2=CCCN(C(=O)CCn3ccnn3)C2)c(F)c2[nH]c(C(=O)N3CCN(c4ccccc4OC)CC3)cc12` [Example I-349], the IC50 is reported as under 0.1 µM.
Work on `COc1ccccc1-c1cc(C2=CCCN(C(=O)CCn3ccnn3)C2)c(F)c2[nH]c(C(=O)N3CCN(c4c(OC)cccc4OC)CC3)cc12` [Example I-350] yielded an IC50 of under 0.1 µM.
`COc1cnc(N2CCN(C(=O)c3cc4c(-c5ccccc5OC)cc(C5=CCCN(C(=O)CCn6ccnn6)C5)c(F)c4[nH]3)CC2)c(OC)c1` [Example I-352] was tested, and the IC50 was under 0.1 µM.
In the case of `CNc1cnc(N2CCN(C(=O)c3cc4c(-c5ccccc5OC)cc(C5=CCCN(C(=O)CCn6ccnn6)C5)c(F)c4[nH]3)CC2)c(OC)c1` [Example I-353], the IC50 is reported as under 0.1 µM.
`COc1ccccc1-c1cc(C2=CCCN(C(=O)CCn3ccnn3)C2)c(F)c2[nH]c(C(=O)N3CCN(c4ncc(C5CC5)cc4OC)CC3)cc12` [Example I-354] gave an IC50 of under 0.1 µM.
`COc1ccccc1-c1cc(C2=CCCN(C(=O)CCn3ccnn3)C2)c(F)c2[nH]c(C(=O)N3CCN(c4nccc5ccncc45)CC3)cc12` [Example I-355] showed an IC50 of under 0.1 µM.
